Results as given in patent US20080070267A1, “Modulation Of Neurotransmitter Activity In Neurons” (The Regents of the University of California, priority 2004, published 2008).

Experiments:
[1] = test system: Ca^2+ spike activity of cultured embryonic spinal neurons; assay: Suppression of spike activity in dissociated neuron cultures; format: cell-based, Xenopus; conditions: 2 mM Ca^2+ culture medium
[2] = test system: myoballs expressing glutamate receptors (rGluR2); assay: Whole-cell recording of spontaneous synaptic currents from myoballs expressing rGluR2 at neuronal growth cones; format: cell-based, Xenopus; conditions: myoballs expressing rGluR2 in contact with growth cones

Row | Compound | spike activity in vitro [1] | spontaneous synaptic currents (SSCs), glutamatergic [2]
1 | CC(=O)OCOC(=O)CN(CC(=O)OCOC(C)=O)c1ccccc1OCCOc1ccccc1N(CC(=O)OCOC(C)=O)CC(=O)OCOC(C)=O [BAPTA-AM, bis-(o-aminophenoxy)ethane-N,N,N,N-tetraacetic acid acetoxymethyl ester] | suppression of spike activity | 
2 | N#Cc1cc2c(cc1[N+](=O)[O-])=NC(=O)C(=O)N=2 [CNQX] |  | blocked
